{"source": "patent US8383806B2", "about": "“Method of reversing carboplatin resistance by inhibition of HGFIN” (University of Medicine and Dentistry of New Jersey, priority 2000, dated 2013)", "molecules": {"B1": {"name": "IL-11: cytokine (protein, UniProt P20809 22-199, looked up)", "Interleukin-11": "PGPPPGPPRVSPDPRAELDSTVLLTRSLLADTRQLAAQLRDKFPADGDHNLDSLPTLAMSAGALGALQLPGVLTRLRADLLSYLRHVQWLRRAGGSSLKTLEPELGTLQARLDRLLRRLQLLMSRLALPQPPPDPPAPPLAPPSSAWGGIRAAHAILGGLHLTLDWAVRGLLLLKTRL"}, "B2": {"name": "G-CSF: granulocyte colony-stimulation factor (protein, UniProt P09919 31-207, looked up)", "Granulocyte …": "TPLGPASSLPQSFLLKCLEQVRKIQGDGAALQEKLVSECATYKLCHPEELVLLGHSLGIPWAPLSSCPSQALQLAGCLSQLHSGLFLYQGLLQALEGISPELGPTLDTLQLDVADFATTIWQQMEELGMAPALQPTQGAMPAFASAFQRRAGGVLVASHLQSFLEVSYRVLRHLAQP"}, "B3": {"name": "M-CSF: macrophage colony-stimulation factor (protein, UniProt P09603 33-554, looked up)", "Macrophage colony-stimulating …": "EEVSEYCSHMIGSGHLQSLQRLIDSQMETSCQITFEFVDQEQLKDPVCYLKKAFLLVQDIMEDTMRFRDNTPNAIAIVQLQELSLRLKSCFTKDYEEHDKACVRTFYETPLQLLEKVKNVFNETKNLLDKDWNIFSKNCNNSFAECSSQDVVTKPDCNCLYPKAIPSSDPASVSPHQPLAPSMAPVAGLTWEDSEGTEGSSLLPGEQPLHTVDPGSAKQRPPRSTCQSFEPPETPVVKDSTIGGSPQPRPSVGAFNPGMEDILDSAMGTNWVPEEASGEASEIPVPQGTELSPSRPGGGSMQTEPARPSNFLSASSPLPASAKGQQPADVTGTALPRVGPVRPTGQDWNHTPQKTDHPSALLRDPPEPGSPRISSLRPQGLSNPSTLSAQPQLSRSHSSGSVLPLGELEGRRSTRDRRSPAEPEGGPASEGAARPLPRFNSVPLTDTGHERQSEGSFSPQLQESVFHLLVPSVILVLLAVGGLLFYRWRRRSHQEPQRADSPLEQPEGSPLTQDDRQVELPV"}}, "key": {"HGFIN mRNA in HL-60": {"tested_on": "HGFIN mRNA in HL-60", "assay": "Northern analysis of HGFIN mRNA in differentiated HL-60", "assay_type": "cell-based", "settings": "HL-60 differentiated to monocytes (TPA) or granulocytes (DMSO)", "description": "(§1) Cell Differentiation. Cell differentiation was performed with a myelomonocytic cell line, HL-60, or bone marrow mononuclear cells (BMNC). HL-60 cells were chemically differentiated with TPA and DMSO for monocytes and granulocytes respectively (Miura, et al. (2000) supra; Hegde, et al. (1999) Blood 94:1578-1589). BMNC were isolated from bone marrow aspirate of healthy donors using FICOLL HYPAQUE density gradient.\nNorthern Analysis. Northern analysis for steady state HGFIN mRNA was performed as described (Rameshwar, et al. (1997) J. Immunol. 158:3417-3424). Total RNA was extracted from the experimental cells and 10 μg from each was separated in 1.2% agarose. RNA was transferred to nylon membranes (S & S NYTRAN, Keene, N.H.) and then hybridized with [α-^32P]-dATP-labeled cDNA probes specific for HGFIN or Id2. Membranes were stripped and then reprobed with cDNA for 18S rRNA. Probes were randomly labeled with [α-^32P]-dATP, 3000 Ci/mM, (Dupont/NEN, Boston, Mass.) using the PRIME-IT II random primer kit (Stratagene). […]\nHGFIN mRNA was studied in differentiated and undifferentiated HL-60 cells to determine if the expression of this gene was limited to normal bone marrow progenitors. […] Similar to normal progenitors, HGFIN mRNA was detected in differentiated HL-60. […]"}, "HGFIN mRNA in PBMC": {"tested_on": "HGFIN mRNA in PBMC", "assay": "Northern analysis of HGFIN mRNA in stimulated PBMC", "assay_type": "cell-based, human", "settings": "1 μg/ml LPS", "description": "(§2) Cell Stimulation. Peripheral blood mononuclear cells (PBMC) were resuspended in RPMI 1640 containing 2% FCS at 10^6/ml. Cell suspension, 10 ml, was stimulated with 1 μg/ml of LPS. bone marrow stroma was stimulated in sera-free α-MEM (Sigma) with the following: 10 μg/ml SCF, 5 ng/ml IL-11, 5 U/ml […], 5 ng/ml […], 25 ng/ml NGF and […]. Dose-response curves with slot blots for HGFIN mRNA determined the optimal concentration of each stimulus. During stromal cell stimulation, culture media were supplemented with insulin-transferring-selenium-A (Life Technologies, Grand Island, N.Y.). In both types of cells, controls included parallel cultures in similar media. At 8 hours and 16 hours, total RNA was extracted from each experimental point and control and then analyzed by northern analyses for HGFIN mRNA.\nNorthern Analysis. Northern analysis for steady state HGFIN mRNA was performed as described (Rameshwar, et al. (1997) J. Immunol. 158:3417-3424). Total RNA was extracted from the experimental cells and 10 μg from each was separated in 1.2% agarose. […]\nAs differentiated immune cells express HGFIN, studies were performed to determining if HGFIN was also expressed when these differentiated cells were activated. […] Consistent with HGFIN expression in PBMC, HGFIN mRNA was detected in the unstimulated PBMC."}, "[1]": {"tested_on": "HGFIN mRNA in bone marrow stroma", "assay": "Northern analysis of HGFIN mRNA in stimulated bone marrow stroma", "assay_type": "cell-based, human", "settings": "bone marrow stroma vs unstimulated", "description": "as §2\n(§3) Northern Analysis. Northern analysis for steady state HGFIN mRNA was performed as described (Rameshwar, et al. (1997) J. Immunol. 158:3417-3424). Total RNA was extracted from the experimental cells and 10 μg from each was separated in 1.2% agarose. RNA was transferred to nylon membranes (S & S NYTRAN, Keene, N.H.) and then hybridized with [α-^32P]-dATP-labeled cDNA probes specific for HGFIN or Id2. Membranes were stripped and then reprobed with cDNA for 18S rRNA. Probes were randomly labeled with [α-^32P]-dATP, 3000 Ci/mM, (Dupont/NEN, Boston, Mass.) using the PRIME-IT II random primer kit (Stratagene). The membrane was placed in a PHOSPHOIMAGER cassette (Molecular Dynamics, Sunnyvale, Calif.) and then scanned at different times beginning at 6 hours to 24 hours on a PHOSPHOIMAGER (Molecular Dynamics). Negative results were not attributed to the lack of total RNA on the membrane since each was hybridized with a cDNA probe for 18S rRNA.\nThe mesenchymal/stromal cells of the bone marrow produce most of the necessary soluble regulators that modulate bone marrow organ functions (Muller-Sieburg & Deryugina (1995) supra). Since HGFIN expression was altered in activated PBMC, the next set of studies examined the role of HGFIN in activated bone marrow stroma. The following stimulators were used: cytokines, SCF, IL-11, IL-1(α, β) and IL-6 and a neurotrophic factor, NGF. […] Densitometric scans were normalized with 18S rRNA and the fold (mean±SD) increase over unstimulated stroma was determined. […] However, together, the levels of HGFIN mRNA in the cytokine-stimulated cultures were much less than in stroma stimulated with NGF."}, "Oct4 breast cancer cells": {"tested_on": "Oct4 breast cancer cells", "assay": "Carboplatin treatment of tumors from Oct4 breast cancer cells in mice", "assay_type": "in vivo, athymic BALB/c mice", "description": "As discussed above, female athymic BALB/c mice (4 weeks) were obtained from Harlan Laboratories (Somerville, N.J.) and housed in a laminar flow hood at an AAALAC-accredited facility. The use of mice was approved by the Institutional Animal Care and Use Committee, New Jersey Medical School (Newark, N.J.).\nMice were inoculated with Oct4 cells where HGFIN expression was knocked down with siRNA. The cells were injected in a total volume of 0.2 mL subcutaneously in the dorsal flanks. Tumors were monitored daily and measured in two dimensions with a caliper and volume was calculated using the formula V=πr^2h, where r=radius and h=height. Animal were injected with carboplatin (50 mg/kg) on day 0 and day 3 of the test period. Tumors were palpated and tumor volume was measured every other day for two weeks (i.e., days 0, 2, 4, 6, 8, 10, 12 and 14)."}, "Id2 in BMNC": {"tested_on": "Id2 in BMNC", "assay": "Id2 protein in differentiated BMNC", "assay_type": "cell-based, human", "description": "Further, BMNC cells were differentiated with M-CSF or G-CSF (500 U/ml for each) to monocytes and granulocytes, respectively. Undifferentiated cells were cultured in parallel with only media. Culture media were replaced at two-day intervals until cytochemical staining determined that >90% of the cells were differentiated. At this time, cell differentiation was terminated and the cells analyzed by northern analyses for Id2 and HGFIN mRNA, and by immunoblot for Id2 protein. For HL-60 cultures, cytochemical staining was performed after three days with 100-200 cells. Beginning at day 5, cells from cultures with BMNC were stained and daily thereafter. […]\nWestern Blots. […] Extracts were centrifuged at 10,000 g for 10 minutes and then determined for total protein concentration using the BIO-RAD Protein Assay kit (BIO-RAD Laboratories, Hercules, Calif.). Extracts (15 Vig) were analyzed by western blot for Id2 protein as described (Rameshwar, et al. (2000) J. Immunol. 165:2271-2277). […] Alk Phos activity was detected with BCIP/NBT substrate System (Kirkeguard & Perry Laboratories, Gaithersburg, Md.). […]\nNorthern blots were performed in four experiments, each with a different donor. […] However in undifferentiated BMNC (cultured in media alone), Id2 mRNA was detected in each of the four bone marrow donors. […]"}, "HGFIN mRNA in BMNC": {"tested_on": "HGFIN mRNA in BMNC", "assay": "Northern analysis of HGFIN mRNA in BMNC cultured with M-CSF or G-CSF", "assay_type": "cell-based, human", "description": "as §1\nFurther, BMNC cells were differentiated with M-CSF or G-CSF (500 U/ml for each) to monocytes and granulocytes, respectively. Undifferentiated cells were cultured in parallel with only media. Culture media were replaced at two-day intervals until cytochemical staining determined that >90% of the cells were differentiated. At this time, cell differentiation was terminated and the cells analyzed by northern analyses for Id2 and HGFIN mRNA, and by immunoblot for Id2 protein. For HL-60 cultures, cytochemical staining was performed after three days with 100-200 cells. Beginning at day 5, cells from cultures with BMNC were stained and daily thereafter. Neutrophil and monocyte staining were performed with kits specific for […], respectively.\nas §3\nSince the HGFIN cDNA was isolated from bone marrow cell subsets, bone marrow and PB mononuclear cells were screened using northern analyses to study the expression of HGFIN. […] After the cells were >90% differentiated to monocytes and neutrophils, cells were analyzed for the expression of HGFIN mRNA by northern analyses.\nTo verify that the expression of HGFIN was not due to activation by the two cytokines, northern analyses were performed with BMNC cultured with M-CSF or G-CSF and then analyzed for HGFIN mRNA before the cells were differentiated."}, "[2]": {"settings": "BMNC >90% differentiated to monocytes or neutrophils"}, "[3]": {"settings": "BMNC cultured with cytokine, before the cells were differentiated"}}, "data": [{"molecule": "C[S+](C)[O-]", "note": "[DMSO, dimethylsulfoxide]", "values": [{"measurement": "HGFIN mRNA", "setting": "HGFIN mRNA in HL-60", "result": "detected"}]}, {"molecule": "lipopolysaccharide [LPS]", "values": [{"measurement": "steady state HGFIN mRNA", "setting": "HGFIN mRNA in PBMC; 8 hours", "result": "no difference"}, {"measurement": "steady state HGFIN mRNA", "setting": "HGFIN mRNA in PBMC; 16 hours", "result": "down-regulated"}]}, {"molecule": "NGF: nerve growth factor, a neurotrophic factor", "values": [{"measurement": "HGFIN mRNA induction", "setting": "[1]", "result": "induced"}]}, {"molecule": "12-0-tetradecanoylphorbol diester [TPA]", "values": [{"measurement": "HGFIN mRNA", "setting": "HGFIN mRNA in HL-60", "result": "detected"}]}, {"molecule": "SCF: Stem cell factor, cytokine", "values": [{"measurement": "HGFIN mRNA induction", "setting": "[1]", "result": "induced"}]}, {"molecule": "N.N.O=C([O-])C1(C(=O)[O-])CCC1.[Pt+2]", "note": "[carboplatin]", "values": [{"measurement": "tumor cell volume vs before carboplatin treatment", "setting": "Oct4 breast cancer cells; 50 mg/kg, two weeks after second injection", "result": "statistically significant decreases"}, {"measurement": "sensitivity of tumors to carboplatin", "setting": "Oct4 breast cancer cells; HGFIN knocked down with siRNA, 50 mg/kg day 0 and day 3, two weeks after second injection", "result": "more sensitive"}]}, {"molecule": "IL-6: cytokine", "values": [{"measurement": "HGFIN mRNA induction", "setting": "[1]", "result": "induced"}]}, {"molecule": "B1", "values": [{"measurement": "HGFIN mRNA induction", "setting": "[1]", "result": "induced"}]}, {"molecule": "B2", "values": [{"measurement": "band for Id2 protein", "setting": "Id2 in BMNC", "result": "very light to undetectable"}, {"measurement": "HGFIN mRNA", "setting": "HGFIN mRNA in BMNC; [2]", "result": "detectable"}, {"measurement": "HGFIN mRNA", "setting": "HGFIN mRNA in BMNC; [3]", "result": "no detectable HGFIN mRNA"}]}, {"molecule": "B3", "values": [{"measurement": "band for Id2 protein", "setting": "Id2 in BMNC", "result": "very light to undetectable"}, {"measurement": "HGFIN mRNA", "setting": "HGFIN mRNA in BMNC; [2]", "result": "detectable"}, {"measurement": "HGFIN mRNA", "setting": "HGFIN mRNA in BMNC; [3]", "result": "no detectable HGFIN mRNA"}]}]}
